Experimental findings from ChEMBL document CHEMBL1136582, “Identification of a high-affinity phosphopeptide inhibitor of Stat3” (Bioorg Med Chem Lett, 2003) are described below.

Square brackets hold non-standard residues; d marks the D form. Peptide text beside a SMILES is read from it. * marks the point of attachment. ξ: configuration not given here. Phe(4-tetrazol-5-yl) = N[C@@H](Cc1ccc(-c2nnn[nH]2)cc1)C(=O)O; Phe(4-COOH) = N[C@@H](Cc1ccc(C(=O)O)cc1)C(=O)O; pY = N[C@@H](Cc1ccc(OP(=O)(O)O)cc1)C(=O)O; X1 = NC(=O)[C@H](CO)NC[C@H](CC(=O)O)N*; ξA = CC(N)C(=O)O

The assay addresses Signal transducer and activator of transcription 3 (Homo sapiens, UniProt P40763). In words: Inhibition of Stat3 (Signal transduction and activator of transcription 3) dimerization measured by EMSAs (Electrophoretic mobility shift assay).

Sequence of Signal transducer and activator of transcription 3 (P40763 whole entry): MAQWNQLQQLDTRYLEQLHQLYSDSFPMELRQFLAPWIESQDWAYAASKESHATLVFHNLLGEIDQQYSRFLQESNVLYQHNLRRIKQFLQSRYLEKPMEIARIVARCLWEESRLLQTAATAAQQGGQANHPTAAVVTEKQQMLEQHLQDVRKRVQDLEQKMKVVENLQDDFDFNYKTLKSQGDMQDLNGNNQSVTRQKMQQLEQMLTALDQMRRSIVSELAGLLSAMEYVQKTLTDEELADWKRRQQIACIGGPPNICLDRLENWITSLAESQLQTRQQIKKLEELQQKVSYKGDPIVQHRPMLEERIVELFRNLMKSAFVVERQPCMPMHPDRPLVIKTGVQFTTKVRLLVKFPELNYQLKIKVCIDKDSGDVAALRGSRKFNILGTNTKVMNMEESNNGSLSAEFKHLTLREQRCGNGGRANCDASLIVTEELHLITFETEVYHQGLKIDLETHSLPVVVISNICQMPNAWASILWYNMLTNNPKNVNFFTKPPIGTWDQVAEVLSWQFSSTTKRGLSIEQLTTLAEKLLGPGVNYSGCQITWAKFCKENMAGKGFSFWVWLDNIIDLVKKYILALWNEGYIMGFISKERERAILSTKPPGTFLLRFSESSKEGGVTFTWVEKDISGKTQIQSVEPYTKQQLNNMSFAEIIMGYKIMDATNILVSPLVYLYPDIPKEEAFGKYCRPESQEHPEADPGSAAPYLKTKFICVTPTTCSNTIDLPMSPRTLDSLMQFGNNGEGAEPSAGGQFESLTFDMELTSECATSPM

One may read the IC50 as the concentration needed to halve the response being measured. For the molecule `CC(=O)N[C@@H](Cc1ccc(C(=O)O)cc1)C(=O)N[C@@H](CC(C)C)C(=O)N1CCC[C@H]1C(=O)N[C@@H](CCC(N)=O)C(=O)N[C@H](C(=O)N[C@H](C(N)=O)C(C)C)[C@@H](C)O` (Ac-[Phe(4-COOH)]LPQTV-NH2), the IC50 was greater than 6 µM.
Next, `CC(=O)N[C@@H](Cc1ccc(-c2nn[nH]n2)cc1)C(=O)N[C@@H](CC(C)C)C(=O)N1CCC[C@H]1C(=O)N[C@@H](CCC(N)=O)C(=O)N[C@H](C(=O)N[C@H](C(N)=O)C(C)C)[C@@H](C)O` (Ac-[Phe(4-tetrazol-5-yl)]LPQTV-NH2): greater than 6 µM; `CC(=O)N[C@@H](Cc1ccc(OP(=O)(O)O)cc1)C(=O)N[C@@H](CC(C)C)C(=O)N1CCC[C@H]1C(N)=O` (Ac-[pY]-Leu-Pro-NH2): greater than 6 µM; `CC(=O)N[C@@H](Cc1ccc(OP(=O)(O)O)cc1)C(=O)N[C@@H](C)C(=O)N1CCC[C@H]1C(=O)N[C@@H](CCC(N)=O)C(=O)N[C@H](C(=O)N[C@H](C(N)=O)C(C)C)[C@@H](C)O` (Ac-[pY]APQTV-NH2): 1.6 µM.
The result for `CC(=O)N[C@@H](Cc1ccc(OP(=O)(O)O)cc1)C(=O)N[C@@H](Cc1ccccc1)C(=O)N[C@@H](CCCCN)C(=O)N[C@@H](CCC(N)=O)C(=O)N[C@@H](CC(N)=O)C(=O)N[C@@H](CS)C(N)=O` (Ac-[pY]FKQNC-NH2) reads 60 µM.
The result for `CSCC[C@H](NC(=O)[C@H](CCC(N)=O)NC(=O)[C@@H]1CCCN1C(=O)[C@H](CCCCN)NC(=O)[C@H](Cc1ccc(OP(=O)(O)O)cc1)NC(C)=O)C(=O)N[C@@H](Cc1cnc[nH]1)C(N)=O` (Ac-[pY]KPQMH-NH2) reads 0.4 µM.
`CC(=O)N[C@@H](Cc1ccc(OP(=O)(O)O)cc1)C(=O)N[C@@H](CC(C)C)C(=O)N[C@@H](CCCCN)C(=O)N[C@@H](CCC(N)=O)C(=O)N[C@@H](CCC(=O)O)C(=O)N[C@@H](CO)C(N)=O` (Ac-[pY]LKQES-NH2): the concentration for half-maximal inhibition (IC50) is 6 µM.
The result for `CC(=O)N[C@@H](Cc1ccc(OP(=O)(O)O)cc1)C(=O)N[C@@H](CC(C)C)C(=O)N1CCC[C@H]1C(=O)N[C@@H](C)C(=O)N[C@H](C(=O)N[C@H](C(N)=O)C(C)C)[C@@H](C)O` (Ac-[pY]LPATV-NH2) reads greater than 6 µM.
Turning to `CC(=O)N[C@@H](Cc1ccc(OP(=O)(O)O)cc1)C(=O)N[C@@H](CC(C)C)C(=O)N1CCC[C@H]1C(=O)N[C@@H](CCC(=O)O)C(=O)N[C@H](C(=O)N[C@H](C(N)=O)C(C)C)[C@@H](C)O` (Ac-[pY]LPETV-NH2), the half-inhibitory concentration (IC50) is greater than 6 µM.
Next, `CC(=O)N[C@@H](Cc1ccc(OP(=O)(O)O)cc1)C(=O)N[C@@H](CC(C)C)C(=O)N1CCC[C@H]1C(=O)N[C@@H](CC(N)=O)C(=O)N[C@H](C(=O)N[C@H](C(N)=O)C(C)C)[C@@H](C)O` (Ac-[pY]LPNTV-NH2): 2 µM; `CC(=O)N[C@@H](Cc1ccc(OP(=O)(O)O)cc1)C(=O)N[C@@H](CC(C)C)C(=O)N1CCC[C@H]1C(=O)N[C@@H](CCC(N)=O)C(=O)N[C@@H](C)C(=O)N[C@H](C(N)=O)C(C)C` (Ac-[pY]LPQAV-NH2): 0.8 µM.
Regarding `CC(=O)N[C@@H](Cc1ccc(OP(=O)(O)O)cc1)C(=O)N[C@@H](CC(C)C)C(=O)N1CCC[C@H]1C(=O)N[C@@H](CCC(N)=O)C(=O)N[C@H](C(=O)N[C@@H](C)C(=O)O)[C@@H](C)O` (Ac-[pY]LPQTA-OH), the IC50 was 0.4 µM.
Next, `CC(=O)N[C@@H](Cc1ccc(OP(=O)(O)O)cc1)C(=O)N[C@@H](CC(C)C)C(=O)N[C@@H](CCCN=C(N)N)C(=O)N[C@@H](CS)C(=O)N[C@H](CN[C@@H](CO)C(N)=O)CC(=O)O` (Ac-[pY]LRC-X1): 80 µM; `CC(=O)N[C@@H](Cc1ccc(OP(=O)(O)O)cc1)C(=O)N[C@@H](CC(C)C)C(=O)NC(C)C(=O)N[C@@H](CCC(N)=O)C(=O)N[C@H](C(=O)N[C@H](C(N)=O)C(C)C)[C@@H](C)O` (some centres not stated) (Ac-[pY]L[ξA]QTV-NH2): 4 µM; `CSCC[C@H](NC(=O)[C@H](Cc1ccc(OP(=O)(O)O)cc1)NC(C)=O)C(=O)N1CCC[C@H]1C(=O)N[C@@H](CCC(N)=O)C(N)=O` (Ac-[pY]MPQ-NH2): 1.5 µM.
The result for `CC(=O)N[C@@H](Cc1ccc(OP(=O)(O)O)cc1)C(=O)N[C@@H](CCC(N)=O)C(=O)N[C@@H](CCCCN)C(=O)N[C@@H](CCC(N)=O)C(=O)N[C@H](C(=O)N[C@@H](CCCN=C(N)N)C(N)=O)[C@@H](C)O` (Ac-[pY]QKQTR-NH2) reads 8 µM; that for `CC(=O)N[C@@H](Cc1ccc(OP(=O)(O)O)cc1)C(=O)N[C@@H](CCC(N)=O)C(=O)N1CCC[C@H]1C(=O)N[C@@H](CCC(N)=O)C(=O)N[C@@H](C)C(=O)N[C@@H](CCCCN)C(N)=O` (Ac-[pY]QPQAK-NH2), 6 µM; that for `CC(=O)N[C@@H](Cc1ccc(OP(=O)(O)O)cc1)C(=O)N[C@@H](CCCN=C(N)N)C(=O)N[C@@H](Cc1cnc[nH]1)C(=O)N[C@@H](CCC(N)=O)C(=O)N[C@H](C(=O)N1CCC[C@H]1C(N)=O)C(C)C` (Ac-[pY]RHQVP-NH2), 6 µM.
Turning to `CSCC[C@H](NC(=O)[C@H](C)NC(=O)[C@H](CCC(N)=O)NC(=O)[C@@H]1CCCN1C(=O)[C@H](CCCN=C(N)N)NC(=O)[C@H](Cc1ccc(OP(=O)(O)O)cc1)NC(C)=O)C(N)=O` (Ac-[pY]RPQAM-NH2), the 50% inhibitory concentration (IC50) was 1 µM.
The result for `CC(=O)N[C@@H](Cc1ccc(OP(=O)(O)O)cc1)C(=O)N[C@@H](CO)C(=O)N[C@@H](CC(=O)O)C(=O)NCC(=O)N[C@@H](CC(N)=O)C(=O)N[C@@H](Cc1ccccc1)C(N)=O` (Ac-[pY]SDGNF-NH2) reads greater than 150 µM; that for `CC(=O)N[C@@H](Cc1ccc(OP(=O)(O)O)cc1)C(=O)N[C@@H](CO)C(=O)N[C@H](C(=O)N[C@H](C(=O)N[C@H](C(=O)N[C@@H](Cc1c[nH]cn1)C(N)=O)C(C)C)C(C)C)[C@@H](C)O` (Ac-[pY]STVVH-NH2), greater than 150 µM.
With `CC(=O)N[C@@H](Cc1ccc(OP(=O)(O)O)cc1)C(=O)N[C@H](C(=O)N[C@@H](CC(C)C)C(=O)N[C@@H](CCC(N)=O)C(=O)NCC(=O)N[C@@H](CC(=O)O)C(N)=O)C(C)C` (Ac-[pY]VLQGD-NH2), the 50% inhibitory concentration (IC50) is 8 µM.
